Test results published in publication PMC3735612, “Functional Identification of Close Proximity Amino Acid Side Chains within the Transmembrane-Spanning Helixes of the P2X2 Receptor” (PLoS ONE, 2013).
Changes are numbered by the printed parent chain.

Legend:
Experiment in all cases: perforated-patch whole-cell voltage clamp, peak ATP-gated current, Hill fit
Type in all cases: cell-based
[1] = target: T1, rP2X2R (rP2X2R-WT; rP2X2R-T for the C348T background) (Rattus norvegicus, UniProt P49653, C348T/H33A)
T1 construct: gene P2rx2; full-length, C-terminal FLAG tag (DYKDDDDK), transiently expressed in HEK293 cells with EGFP; homotrimer; monomer about 62 kDa on SDS-PAGE; all point mutants made on the C348T (rP2X2R-T) background
T1 sequence (P49653 1-472 H33A/C348T): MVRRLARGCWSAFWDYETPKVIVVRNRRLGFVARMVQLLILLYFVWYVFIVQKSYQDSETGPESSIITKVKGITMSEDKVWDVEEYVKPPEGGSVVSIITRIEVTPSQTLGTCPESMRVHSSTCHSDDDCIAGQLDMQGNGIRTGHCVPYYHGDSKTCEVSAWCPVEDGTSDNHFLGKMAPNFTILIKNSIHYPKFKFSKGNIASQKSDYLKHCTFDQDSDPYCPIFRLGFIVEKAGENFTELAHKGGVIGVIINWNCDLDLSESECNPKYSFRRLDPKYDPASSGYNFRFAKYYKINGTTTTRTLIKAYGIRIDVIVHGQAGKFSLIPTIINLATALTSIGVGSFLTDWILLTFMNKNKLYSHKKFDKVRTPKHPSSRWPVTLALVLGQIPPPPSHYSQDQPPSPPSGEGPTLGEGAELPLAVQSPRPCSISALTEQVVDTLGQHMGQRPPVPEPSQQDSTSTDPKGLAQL
Text: (§1) perforated-patch whole-cell voltage clamp, peak ATP-gated current, Hill fit on rP2X2R (rP2X2R-WT; rP2X2R-T for the C348T background)

[2] = target: T2, rP2X2R (rP2X2R-WT; rP2X2R-T for the C348T background) (Rattus norvegicus, UniProt P49653, C348T/F44C)
T2 construct: gene P2rx2; full-length, C-terminal FLAG tag (DYKDDDDK), transiently expressed in HEK293 cells with EGFP; homotrimer; monomer about 62 kDa on SDS-PAGE; all point mutants made on the C348T (rP2X2R-T) background
T2 sequence (P49653 1-472 F44C/C348T): T1 sequence (P49653 1-472 H33A/C348T) with A33H, F44C
Text: as §1

[3] = target: T3, rP2X2R (rP2X2R-WT; rP2X2R-T for the C348T background) (Rattus norvegicus, UniProt P49653, C348T/H33A/S345A)
T3 construct: gene P2rx2; full-length, C-terminal FLAG tag (DYKDDDDK), transiently expressed in HEK293 cells with EGFP; homotrimer; monomer about 62 kDa on SDS-PAGE; all point mutants made on the C348T (rP2X2R-T) background
T3 sequence (P49653 1-472 H33A/S345A/C348T): T1 sequence (P49653 1-472 H33A/C348T) with S345A
Text: as §1

[4] = target: T4, rP2X2R (rP2X2R-WT; rP2X2R-T for the C348T background) (Rattus norvegicus, UniProt P49653, C348T/I328A)
T4 construct: gene P2rx2; full-length, C-terminal FLAG tag (DYKDDDDK), transiently expressed in HEK293 cells with EGFP; homotrimer; monomer about 62 kDa on SDS-PAGE; all point mutants made on the C348T (rP2X2R-T) background
T4 sequence (P49653 1-472 I328A/C348T): T1 sequence (P49653 1-472 H33A/C348T) with A33H, I328A
Text: as §1

[5] = target: T5, rP2X2R (rP2X2R-WT; rP2X2R-T for the C348T background) (Rattus norvegicus, UniProt P49653, C348T/H33C/S345C)
T5 construct: gene P2rx2; full-length, C-terminal FLAG tag (DYKDDDDK), transiently expressed in HEK293 cells with EGFP; homotrimer; monomer about 62 kDa on SDS-PAGE; all point mutants made on the C348T (rP2X2R-T) background
T5 sequence (P49653 1-472 H33C/S345C/C348T): T1 sequence (P49653 1-472 H33A/C348T) with A33C, S345C
Text: as §1

[6] = target: T6, rP2X2R (rP2X2R-WT; rP2X2R-T for the C348T background) (Rattus norvegicus, UniProt P49653, C348T/S345C)
T6 construct: gene P2rx2; full-length, C-terminal FLAG tag (DYKDDDDK), transiently expressed in HEK293 cells with EGFP; homotrimer; monomer about 62 kDa on SDS-PAGE; all point mutants made on the C348T (rP2X2R-T) background
T6 sequence (P49653 1-472 S345C/C348T): T1 sequence (P49653 1-472 H33A/C348T) with A33H, S345C
Text: as §1

[7] = target: T7, rP2X2R (rP2X2R-WT; rP2X2R-T for the C348T background) (Rattus norvegicus, UniProt P49653, C348T/H33C)
T7 construct: gene P2rx2; full-length, C-terminal FLAG tag (DYKDDDDK), transiently expressed in HEK293 cells with EGFP; homotrimer; monomer about 62 kDa on SDS-PAGE; all point mutants made on the C348T (rP2X2R-T) background
T7 sequence (P49653 1-472 H33C/C348T): T1 sequence (P49653 1-472 H33A/C348T) with A33C
Text: as §1

[8] = target: T8, rP2X2R (rP2X2R-WT; rP2X2R-T for the C348T background) (Rattus norvegicus, UniProt P49653, C348T/S345A)
T8 construct: gene P2rx2; full-length, C-terminal FLAG tag (DYKDDDDK), transiently expressed in HEK293 cells with EGFP; homotrimer; monomer about 62 kDa on SDS-PAGE; all point mutants made on the C348T (rP2X2R-T) background
T8 sequence (P49653 1-472 S345A/C348T): T1 sequence (P49653 1-472 H33A/C348T) with A33H, S345A
Text: as §1

[9] = target: T9, rP2X2R (rP2X2R-WT; rP2X2R-T for the C348T background) (Rattus norvegicus, UniProt P49653, C348T/I328C/V48C)
T9 construct: gene P2rx2; full-length, C-terminal FLAG tag (DYKDDDDK), transiently expressed in HEK293 cells with EGFP; homotrimer; monomer about 62 kDa on SDS-PAGE; all point mutants made on the C348T (rP2X2R-T) background
T9 sequence (P49653 1-472 V48C/I328C/C348T): T1 sequence (P49653 1-472 H33A/C348T) with A33H, V48C, I328C
Text: as §1

## Nc1ncnc2c1ncn2[C@@H]1O[C@H](COP(=O)(O)OP(=O)(O)OP(=O)(O)O)[C@@H](O)[C@H]1O [ATP]
[1]
  EC50: 4.2 ± 0.6 µM
[2]
  EC50: 0.81 ± 0.1 µM
[3]
  EC50: 35.7 ± 0.5 µM
[4]
  EC50: 0.4 ± 0.1 µM
[5]
  EC50: 7.3 ± 1.1 µM
[6]
  EC50: 6.3 ± 0.9 µM
[7]
  EC50: 2.3 ± 0.5 µM
[8]
  EC50: 12.1 ± 0.7 µM
[9]
  EC50: 17.8 ± 2 µM
